Experimental data published in PubChem BioAssay (NCI).
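Exposure lasted 48 hours, with cells grown in 96-well plates and compounds tested at five concentrations. TGI: total growth inhibition.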

Columns and labels:
Assay in all cases: growth of human tumour cells (NCI), 48 h
786-0 renal = test system: 786-0 renal
A498 renal = test system: A498 renal
A549 NSCLC = test system: A549 NSCLC
ACHN renal = test system: ACHN renal
BT-549 breast = test system: BT-549 breast
CAKI-1 renal = test system: CAKI-1 renal
CCRF-CEM leukemia = test system: CCRF-CEM leukemia
COLO 205 colon = test system: COLO 205 colon
DU-145 prostate = test system: DU-145 prostate
EKVX NSCLC = test system: EKVX NSCLC
HCC-2998 colon = test system: HCC-2998 colon
HCT-116 colon = test system: HCT-116 colon
HCT-15 colon = test system: HCT-15 colon
HL-60(TB) leukemia = test system: HL-60(TB) leukemia
HOP-62 NSCLC = test system: HOP-62 NSCLC
HOP-92 NSCLC = test system: HOP-92 NSCLC
HS 578T breast = test system: HS 578T breast
IGROV1 ovarian = test system: IGROV1 ovarian
K-562 leukemia = test system: K-562 leukemia
KM12 colon = test system: KM12 colon
LOX IMVI melanoma = test system: LOX IMVI melanoma
M14 melanoma = test system: M14 melanoma
MALME-3M melanoma = test system: MALME-3M melanoma
MDA-MB-231 breast = test system: MDA-MB-231 breast
MDA-MB-435 = test system: MDA-MB-435
MDA-N = test system: MDA-N
MOLT-4 leukemia = test system: MOLT-4 leukemia
NCI-H226 lung = test system: NCI-H226 lung
NCI-H23 lung = test system: NCI-H23 lung
NCI-H460 lung = test system: NCI-H460 lung
NCI-H522 lung = test system: NCI-H522 lung
NCI/ADR-RES ovarian = test system: NCI/ADR-RES ovarian
OVCAR-3 ovarian = test system: OVCAR-3 ovarian
OVCAR-5 ovarian = test system: OVCAR-5 ovarian
OVCAR-8 ovarian = test system: OVCAR-8 ovarian
PC-3 prostate = test system: PC-3 prostate
RPMI-8226 leukemia = test system: RPMI-8226 leukemia
RXF 393 renal = test system: RXF 393 renal
SF-268 CNS = test system: SF-268 CNS
SF-295 CNS = test system: SF-295 CNS
SF-539 CNS = test system: SF-539 CNS
SK-MEL-28 melanoma = test system: SK-MEL-28 melanoma
SK-MEL-5 melanoma = test system: SK-MEL-5 melanoma
SK-OV-3 ovarian = test system: SK-OV-3 ovarian
SN12C renal = test system: SN12C renal
SNB-19 CNS = test system: SNB-19 CNS
SNB-75 CNS = test system: SNB-75 CNS
SR leukemia = test system: SR leukemia
SW-620 colon = test system: SW-620 colon
T-47D breast = test system: T-47D breast
TK-10 renal = test system: TK-10 renal
U251 CNS = test system: U251 CNS
UACC-257 melanoma = test system: UACC-257 melanoma
UO-31 renal = test system: UO-31 renal
HT29 colon = test system: HT29 colon
MCF7 breast = test system: MCF7 breast
OVCAR-4 ovarian = test system: OVCAR-4 ovarian
SK-MEL-2 melanoma = test system: SK-MEL-2 melanoma
UACC-62 melanoma = test system: UACC-62 melanoma

COc1cc(Nc2nc3ccccc3nc2C(=O)O)cc(OC)c1OC
TGI (786-0 renal): > 100 µM
TGI (A498 renal): 82.5 µM
TGI (A549 NSCLC): > 100 µM
TGI (ACHN renal): > 100 µM
TGI (BT-549 breast): > 100 µM
TGI (CAKI-1 renal): 76.4 µM
TGI (CCRF-CEM leukemia): > 100 µM
TGI (COLO 205 colon): > 100 µM
TGI (DU-145 prostate): > 100 µM
TGI (EKVX NSCLC): > 100 µM
TGI (HCC-2998 colon): > 100 µM
TGI (HCT-116 colon): > 100 µM
TGI (HCT-15 colon): > 100 µM
TGI (HL-60(TB) leukemia): > 100 µM
TGI (HOP-62 NSCLC): > 100 µM
TGI (HOP-92 NSCLC): 92.7 µM
TGI (HS 578T breast): 92 µM
TGI (IGROV1 ovarian): > 100 µM
TGI (K-562 leukemia): > 100 µM
TGI (KM12 colon): > 100 µM
TGI (LOX IMVI melanoma): > 100 µM
TGI (M14 melanoma): > 100 µM
TGI (MALME-3M melanoma): > 100 µM
TGI (MDA-MB-231 breast): > 100 µM
TGI (MDA-MB-435): > 100 µM
TGI (MDA-N): > 100 µM
TGI (MOLT-4 leukemia): > 100 µM
TGI (NCI-H226 lung): > 100 µM
TGI (NCI-H23 lung): > 100 µM
TGI (NCI-H460 lung): > 100 µM
TGI (NCI-H522 lung): > 100 µM
TGI (NCI/ADR-RES ovarian): > 100 µM
TGI (OVCAR-3 ovarian): > 100 µM
TGI (OVCAR-5 ovarian): > 100 µM
TGI (OVCAR-8 ovarian): > 100 µM
TGI (PC-3 prostate): > 100 µM
TGI (RPMI-8226 leukemia): > 100 µM
TGI (RXF 393 renal): > 100 µM
TGI (SF-268 CNS): > 100 µM
TGI (SF-295 CNS): > 100 µM
TGI (SF-539 CNS): > 100 µM
TGI (SK-MEL-28 melanoma): > 100 µM
TGI (SK-MEL-5 melanoma): > 100 µM
TGI (SK-OV-3 ovarian): > 100 µM
TGI (SN12C renal): > 100 µM
TGI (SNB-19 CNS): > 100 µM
TGI (SNB-75 CNS): > 100 µM
TGI (SR leukemia): > 100 µM
TGI (SW-620 colon): > 100 µM
TGI (T-47D breast): > 100 µM
TGI (TK-10 renal): 78.6 µM
TGI (U251 CNS): > 100 µM
TGI (UACC-257 melanoma): > 100 µM
TGI (UO-31 renal): > 100 µM

COC[C@@H](N=CC(C)(C)C)C(C)C
TGI (786-0 renal): > 100 µM
TGI (A498 renal): > 100 µM
TGI (A549 NSCLC): > 100 µM
TGI (ACHN renal): > 100 µM
TGI (CAKI-1 renal): > 100 µM
TGI (CCRF-CEM leukemia): > 100 µM
TGI (COLO 205 colon): > 100 µM
TGI (DU-145 prostate): > 100 µM
TGI (EKVX NSCLC): > 100 µM
TGI (HCC-2998 colon): > 100 µM
TGI (HCT-116 colon): > 100 µM
TGI (HCT-15 colon): > 100 µM
TGI (HL-60(TB) leukemia): > 100 µM
TGI (HOP-62 NSCLC): > 100 µM
TGI (HOP-92 NSCLC): > 100 µM
TGI (HS 578T breast): > 100 µM
TGI (HT29 colon): > 100 µM
TGI (IGROV1 ovarian): > 100 µM
TGI (K-562 leukemia): > 100 µM
TGI (KM12 colon): > 100 µM
TGI (LOX IMVI melanoma): > 100 µM
TGI (M14 melanoma): > 100 µM
TGI (MALME-3M melanoma): > 100 µM
TGI (MCF7 breast): > 100 µM
TGI (MDA-MB-231 breast): > 100 µM
TGI (MDA-MB-435): > 100 µM
TGI (MDA-N): > 100 µM
TGI (MOLT-4 leukemia): > 100 µM
TGI (NCI-H226 lung): > 100 µM
TGI (NCI-H23 lung): > 100 µM
TGI (NCI-H460 lung): > 100 µM
TGI (NCI-H522 lung): > 100 µM
TGI (NCI/ADR-RES ovarian): > 100 µM
TGI (OVCAR-3 ovarian): > 100 µM
TGI (OVCAR-4 ovarian): > 100 µM
TGI (OVCAR-5 ovarian): > 100 µM
TGI (OVCAR-8 ovarian): > 100 µM
TGI (PC-3 prostate): > 100 µM
TGI (RPMI-8226 leukemia): > 100 µM
TGI (RXF 393 renal): > 100 µM
TGI (SF-268 CNS): > 100 µM
TGI (SF-295 CNS): > 100 µM
TGI (SF-539 CNS): > 100 µM
TGI (SK-MEL-2 melanoma): > 100 µM
TGI (SK-MEL-28 melanoma): > 100 µM
TGI (SK-MEL-5 melanoma): > 100 µM
TGI (SK-OV-3 ovarian): > 100 µM
TGI (SN12C renal): > 100 µM
TGI (SNB-19 CNS): > 100 µM
TGI (SNB-75 CNS): > 100 µM
TGI (SR leukemia): > 100 µM
TGI (SW-620 colon): > 100 µM
TGI (T-47D breast): > 100 µM
TGI (TK-10 renal): > 100 µM
TGI (U251 CNS): > 100 µM
TGI (UACC-257 melanoma): > 100 µM
TGI (UACC-62 melanoma): > 100 µM
TGI (UO-31 renal): > 100 µM
